Reference: patent US12286437B2, “Cardiac sarcomere inhibitors” (Cytokinetics, Inc., priority 2021, dated 2025)

What was measured:
[1] = Monkey cassette dosing pharmacokinetics; assay type: in vivo; conditions: IV; for clearance / Vd: male, plasma; for Vd: read-out: Vss
[2] = Dog cassette dosing pharmacokinetics; assay type: in vivo, beagle dogs; conditions: male, beagle, plasma, IV; for Vd: read-out: Vss; for half-life: read-out: t½ (converted)
Experimental: Non-naïve male beagle dogs (8 months to 3 years of age, body weight 8-14 kg) sourced from Jiangsu Johnsen Bioresource CO. and/or Beijing Rixinkeji CO., LTD and/or Beijing Marshall Biotechnology CO., LTD were used in this study. All animals for IV administration had free access to food and water. The IV dose solution was prepared in 10% DMA/50% PG/40% HPβCD solution (40% w/v aqueous HPβCD) at a concentration of 0.2 mg/mL. Concentrations of IV dose was measured at the end of the study. PK parameters were calculated using the nominal dose values if the measured values were within 20% of the nominal values. Blood samples were collected by venipuncture of peripheral veins except the dosing vein at pre-dose, 5 15, 30 min, 1, 2, 4, 6, 8 and 24 h post-dose. Blood samples were centrifuged and resultant plasma was frozen for bioanalysis. Plasma samples were stored at −80° C. before analysis. Plasma samples were analyzed for compound concentrations using the LC/MS/MS method. Briefly, a 50 μL aliquot of each plasma sample was mixed with 100 μL of acetonitrile that contained an internal standard. The mixture was vortexed and centrifuged. Ten (10) μL of the resulting solution was injected onto a reverse-phase C18 column and the resultant peaks detected on a LC/MS/MS equipped with a turbo ionspray ionization source. Sample concentrations below the limit of quantification (BLQ) were treated as zero for PK calculations. PK parameters were estimated from individual animals using noncompartmental analysis of the concentration-time data (Phoenix WinNonLin software, version 64; Pharsight, Mountain View, CA). The elimination rate constant (k) was calculated as the absolute value of the slope of the linear regression of logarithm (log) of the concentration versus time for the last three data points of the concentration-time profiles. Apparent elimination half-life (t1/2) values were calculated as ln(2)/k. Area under the concentration-time curve (AUC) values were estimated using linear trapezoidal method. AUCt values were calculated from the dosing time to the last measurable concentration. AUC∞ values were calculated as the sum of the corresponding AUCt and the ratio of the last detectable concentration divided by k. Plasma clearance (CL) was calculated from Dose/AUC∞. Mean resident time extrapolated to infinity (MRT∞) was estimated by moment analysis. Vss was calculated from MRT∞×CL. Maximum concentration (Cmax) and time to reach Cmax (tmax) were recorded as observed. As this was a cross-over study, bioavailability was calculated dAUC∞,po/dAUC∞,iv×100% where dAUC was the dose normalized AUC value from the same animal given IV and PO dose. Data for compounds tested are provided in Table G. Compounds tested were prepared in accordance with the synthetic procedures described herein.

[3] = test system: bovine cardiac myofibrils; assay: Myofibril assay (ATPase activity of skinned bovine cardiac myofibrils, PK/LDH-coupled); assay type: biochemical; conditions: inhibition of steady-state ATPase of bovine cardiac myofibrils; CaCl2 for 50% or 75% activation
Experimental: To evaluate the effect of compounds on the ATPase activity of full-length cardiac myosin in the context of the native sarcomere, skinned myofibril assays were performed. Bovine cardiac myofibrils were obtained by homogenizing bovine cardiac left ventricular tissue in the presence of a detergent such as triton X-100. Such treatment removes membranes and a majority of the soluble cytoplasmic proteins but leaves intact the cardiac sarcomeric acto-myosin apparatus. Myofibril preparations retain the ability to hydrolyze ATP in a Ca^2+ regulated manner. ATPase activities of such myofibril preparations in the presence and absence of compounds were assayed at Ca^2+ concentrations activating to a defined fraction of the maximal rate (i.e., […], 75%). Small molecule agents were assessed for their ability to inhibit the steady-state ATPase activity of bovine cardiac myofibrils using pyruvate kinase and lactate dehydrogenase (PK/LDH)-coupled enzyme system. This assay regenerates myosin-produced ADP into ATP by oxidizing NADH, producing an absorbance change at 340 nm. Prior to testing small molecule agents, the bovine cardiac myofibrils were assessed for their calcium responsiveness and the calcium concentration that achieves either a 50% (pCa50) or 75% (pCa75) activation of the myofibril system was chosen as the final condition for assessing the inhibitory activity of the small molecule agents. All enzymatic activity was measured in a buffered solution containing 12 mM PIPES (piperazine-N,N′-bis(2-ethanesulfonic acid), 2 mM magnesium chloride at pH 6.8 (PM 12 buffer). Final assay conditions were 1 mg/mL of bovine cardiac myofibrils, 4 U/mL pyruvate kinase, 6 U/mL lactate dehydrogenase, 50 μM ATP, 0.1 mg/mL BSA (bovine serum albumin), 10 ppm antifoam, 1 mM DTT, 0.5 mM NADH, 1.5 mM PEP, 0.6 mM EGTA, and an amount of CaCl2 sufficient to achieve either 50% or 75% activation of the myofibril ATPase activity. Results for compounds tested are provided in Table A. Compounds tested were prepared in accordance with the synthetic procedures described herein.

[4] = Rat single dose pharmacokinetics; assay type: in vivo, Sprague Dawley rats; conditions: male, Sprague Dawley, plasma, IV; for Vd: read-out: Vss
Experimental: Male Sprague Dawley rats were obtained from Zhejiang Vital River Laboratory Animal Technology Co., Ltd. The animals in IV group had free access to water and food. The animals in PO group were fasted overnight before dosing and provided with food 2 hours post dosing. The IV dose solution was prepared in 10% DMA/50% PG/40% HPβCD solution (40% w/v aqueous HPβCD) at a concentration of 1 mg/mL. The oral dosing suspension was prepared by suspending Test Article in 0.5% HPMC/0.1% Tween 80 in water at a concentration 0.2 mg/mL. Concentrations of IV and PO doses were measured at the end of the study. Pharmacokinetic parameters were calculated using the nominal dose values if the measured values were within 20% of the nominal values. Three rats were dosed IV via a bolus injection via caudal vein. Three rats per dose group were dosed by oral gavage. Blood samples were collected from the jugular vein cannula at predose, 5 (IV only), 15, 30 minutes, and 1, 2, 4, 6, and 24 hours post-dose. Blood volumes were replaced with an equal amount of sterile 0.9% saline. Blood samples were centrifuged and the collected plasma was stored at −80° C. for subsequent analysis. Plasma samples were analyzed for Test Article concentrations using a LC/MS/MS method. Briefly, a 50 μL aliquot of each plasma sample was mixed with 100 μL of acetonitrile that contained an internal standard. The mixture was vortexed and centrifuged. Ten (10) […] of the resulting solution was injected onto a reverse-phase C18 column and the resultant peaks detected on a LC/MS/MS equipped with a turbo ionspray ionization source. Sample concentrations below the limit of quantification (BLQ) were treated as zero for pharmacokinetic calculations. Pharmacokinetic parameters were estimated from individual animals using noncompartmental analysis of the concentration-time data (Phoenix WinNonLin software, version 64; Pharsight, Mountain View, CA). The elimination rate constant (k) was calculated as the absolute value of the slope of the linear regression of logarithm (log) of the concentration versus time for the last three data points of the concentration-time profiles. Apparent elimination half-life (t1/2) values were calculated as ln(2)/k. Area under the concentration-time curve (AUC) values were estimated using linear trapezoidal method. AUCt values were calculated from the dosing time to the last measurable concentration. AUC∞ values were calculated as the sum of the corresponding AUCt and the ratio of the last detectable concentration divided by k (AUCt-∞). Plasma clearance (CL) was calculated from Dose/AUC∞. Mean resident time (MRT) was estimated by moment analysis. Volume of distribution at steady state (Vss) was calculated from MRT∞×CL. Maximum concentration (Cmax) and time to reach Cmax (tmax) were recorded as observed. Bioavailability was calculated from the ratio of dose normalized AUC∞,po of individual rats/mean dAUC∞,iv×100% where dAUC was the dose normalized AUC value. Compounds tested were prepared in accordance with the synthetic procedures described herein.

| Structure (SMILES) | t l/2 [1] [h] | clearance [1] [mL/min/kg] | Vd [1] [L/kg] | clearance [2] [mL/min/kg] | Vd [2] [L/kg] | half-life [2] [h] | CDMF IC15 [3] [nM] | clearance [4] [mL/min/kg] | half-life [4] [h] | Vd [4] [L/kg] |
| --- | --- | --- | --- | --- | --- | --- | --- | --- | --- | --- |
| CC[C@H](C)N1CC(=O)N(Cc2ccc(F)c(F)c2)C2(CN(c3cccnn3)C2)C1=O [Compound 14, (S)-8-(sec-butyl)-5-(3,4-difluorobenzyl)-2-(pyridazin-3-yl)-2,5,8-triazaspiro[3.5]nonane-6,9-dione] | 1.1 | 17.1 | 1.48 | 36.5 | 6.44 | 2.43 | 1300 |  |  |  |
| CC[C@H]1CC[C@H](N2CC(=O)N(Cc3ccc(F)cc3)C3(CN(C(N)=O)C3)C2=O)CC1 [Compound 2, 8-((1r,4r)-4-ethylcyclohexyl)-5-(4-fluorobenzyl)-6,9-dioxo-2,5,8-triazaspiro[3.5]nonane-2-carboxamide] |  |  |  | 4.06 | 1.99 | 7.34 | 2100 |  |  |  |
| CC[C@H](C)N1CC(=O)N(Cc2ccc(F)c(C)c2)C2(CN(c3cccnn3)C2)C1=O [Compound 16, (S)-8-(sec-butyl)-5-(4-fluoro-3-methylbenzyl)-2-(pyridazin-3-yl)-2,5,8-triazaspiro[3.5]nonane-6,9-dione] |  |  |  | 33 | 7.08 | 3.07 | 900 |  |  |  |
| CCC(CC)N1CC(=O)N(Cc2ccc(F)c(F)c2)C2(CN(c3cccnn3)C2)C1=O [Compound 15, 5-(3,4-difluorobenzyl)-8-(pentan-3-yl)-2-(pyridazin-3-yl)-2,5,8-triazaspiro[3.5]nonane-6,9-dione] |  |  |  | 24.2 | 2.84 | 1.49 | 1400 |  |  |  |
| C[C@H]1CC[C@H](N2CC(=O)N(Cc3ccc(F)cc3)C3(CN(c4cccnn4)C3)C2=O)CC1 [Compound 17, 5-(4-fluorobenzyl)-8-((1r,4r)-4-methylcyclohexyl)-2-(pyridazin-3-yl)-2,5,8-triazaspiro[3.5]nonane-6,9-dione] |  |  |  | 41.9 | 8.25 | 3.02 | 900 |  |  |  |
| CC[C@H]1CC[C@H](N2CC(=O)N(Cc3ccc(F)c(F)c3)C3(CN(C(N)=O)C3)C2=O)CC1 [Compound 11, 5-(3,4-difluorobenzyl)-8-((1r,4r)-4-ethylcyclohexyl)-6,9-dioxo-2,5,8-triazaspiro[3.5]nonane-2-carboxamide] | 3.03 | 33.1 | 7.26 | 6.3 | 4.42 | 9.66 | 700 |  |  |  |
| C[C@H]1CC[C@H](N2CC(=O)N(Cc3ccc(Cl)c(F)c3)C3(CN(C(N)=O)C3)C2=O)CC1 [Compound 3, 5-(4-chloro-3-fluorobenzyl)-8-((1r,4r)-4-methylcyclohexyl)-6,9-dioxo-2,5,8-triazaspiro[3.5]nonane-2-carboxamide] |  |  |  | 7.16 | 6.9 | 13.1 | 700 | 78.5 | 2.6 | 14.7 |
| C[C@H]1CC[C@H](N2CC(=O)N(Cc3ccc(Cl)cc3)C3(CN(c4cccnn4)C3)C2=O)CC1 [Compound 10, 5-(4-chlorobenzyl)-8-((1r,4r)-4-methylcyclohexyl)-2-(pyridazin-3-yl)-2,5,8-triazaspiro[3.5]nonane-6,9-dione] |  |  |  | 36.3 | 18.6 | 9.38 | 300 |  |  |  |
| CC(C)N1CC(=O)N(Cc2ccc(F)c(Cl)c2)C2(CN(c3cccnn3)C2)C1=O [Compound 9, 5-(3-chloro-4-fluorobenzyl)-8-isopropyl-2-(pyridazin-3-yl)-2,5,8-triazaspiro[3.5]nonane-6,9-dione] | 1.59 | 15.2 | 1.88 | 13.9 | 3.08 | 3.65 | 1600 | 27.4 | 0.925 | 1.64 |
| C[C@H]1CC[C@H](N2CC(=O)N(Cc3ccc(F)c(F)c3)C3(CN(c4cccnn4)C3)C2=O)CC1 [Compound 12, 5-(3,4-difluorobenzyl)-8-((1r,4r)-4-methylcyclohexyl)-2-(pyridazin-3-yl)-2,5,8-triazaspiro[3.5]nonane-6,9-dione] |  |  |  | 34.4 | 17.8 | 7.39 | 400 |  |  |  |
| CC[C@H]1CC[C@H](N2CC(=O)N(Cc3ccc(Cl)cc3)C3(CN(C(N)=O)C3)C2=O)CC1 [Compound 1, 5-(4-chlorobenzyl)-8-((1r,4r)-4-ethylcyclohexyl)-6,9-dioxo-2,5,8-triazaspiro[3.5]nonane-2-carboxamide] |  |  |  | 3.65 | 3.44 | 12.5 | 800 |  |  |  |
